The values that follow come from PubChem BioAssay AID328 (DTP/NCI, 2004).

Several values for one entry are separate records, joined by “and”; a condition that tells them apart may be missing. Equal entries are not always repeated. Inconclusive results and toxic doses are left out.

This test deals with BDF1 mice, P388 leukemia ip, median survival T/C. Briefly: NCI In Vivo Anticancer Drug Screen. Data for tumor model P388 Leukemia (intraperitoneal) in B6D2F1 (BDF1) mice. The note with it: endpoint: median survival time, higher = longer survival. In outline:
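Each value expresses how treatment altered survival: treated-mouse outcome over vehicle-mouse outcome, both groups bearing the transplanted tumour.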

[1] abbreviates: dose: 100.0 mg/kg/injection, schedule: Q01DX009 (ip), vehicle: other.
Setting [2] is: dose: 200.0 mg/kg/injection, schedule: Q01DX009 (ip), vehicle: other.
[3] abbreviates: dose: 100.0 mg/kg/injection, schedule: Q01DX005 (ip), vehicle: saline with Tween-80.

Consider `O=C1CN(CCN2CC(=O)NC(=O)C2)CC(=O)N1`, for which the T/C is, setting by setting: (dose: 3.12 mg/kg/injection, schedule: Q03HX024 (ip), vehicle: steriod suspending solution) 105 % of control; (dose: 6.25 mg/kg/injection, schedule: Q03HX024 (ip), vehicle: steriod suspending solution) 117 % of control; (dose: 12.5 mg/kg/injection, schedule: Q01DX009 (ip), vehicle: steriod suspending solution) 94 % of control; (dose: 12.5 mg/kg/injection, schedule: Q03HX024 (ip), vehicle: steriod suspending solution) 152 % of control; (dose: 15.0 mg/kg/injection, schedule: Q01DX010 (ip), vehicle: saline) 314 % of control and 222 % of control; (dose: 25.0 mg/kg/injection, schedule: Q01DX009 (ip), vehicle: steriod suspending solution) 105 % of control. Further, the T/C was 152 % of control (dose: 25.0 mg/kg/injection, schedule: Q03HX024 (ip), vehicle: steriod suspending solution); 272 % of control and 176 % of control (dose: 30.0 mg/kg/injection, schedule: Q01DX010 (ip), vehicle: saline); 123 % of control (dose: 50.0 mg/kg/injection, schedule: Q03HX024 (ip), vehicle: steriod suspending solution); 118 % of control and 219 % of control (dose: 60.0 mg/kg/injection, schedule: Q01DX010 (ip), vehicle: saline); 100 % of control (dose: 100.0 mg/kg/injection, schedule: Q01DX001 (ip), vehicle: steriod suspending solution); 164 % of control (dose: 100.0 mg/kg/injection, schedule: Q01DX009 (ip), vehicle: steriod suspending solution). The T/C (dose: 100.0 mg/kg/injection, schedule: Q04DX003 (ip), vehicle: steriod suspending solution) is 105 % of control; the T/C (dose: 200.0 mg/kg/injection, schedule: Q01DX001 (ip), vehicle: steriod suspending solution) was 105 % of control; the T/C (dose: 200.0 mg/kg/injection, schedule: Q04DX003 (ip), vehicle: steriod suspending solution) was 111 % of control; the T/C (dose: 400.0 mg/kg/injection, schedule: Q01DX001 (ip), vehicle: steriod suspending solution) is 111 % of control; the T/C (dose: 800.0 mg/kg/injection, schedule: Q01DX001 (ip), vehicle: steriod suspending solution) was 117 % of control; the T/C (dose: 800.0 mg/kg/injection, schedule: Q04DX003 (ip), vehicle: steriod suspending solution) is 182 % of control.

On to `COC(=O)CC1CCN(C(=O)OCc2ccccc2)C(Cc2c[nH]c3ccccc23)C1=O` (stereo unspecified), for which the T/C (dose: 2.0 mg/kg/injection, schedule: Q01DX009 (ip), vehicle: saline) is 105 % of control; the T/C (dose: 3.0 mg/kg/injection, schedule: Q01DX009 (ip), vehicle: saline) is 109 % of control; the T/C (dose: 4.0 mg/kg/injection, schedule: Q01DX009 (ip), vehicle: saline) is 114 % of control; the T/C (dose: 8.0 mg/kg/injection, schedule: Q01DX009 (ip), vehicle: saline) was 98 % of control; the T/C (dose: 10.0 mg/kg/injection, schedule: Q01DX009 (ip), vehicle: saline) was 109 % of control; the T/C (dose: 16.0 mg/kg/injection, schedule: Q01DX009 (ip), vehicle: saline) is 102 % of control. The T/C runs as follows: (dose: 30.0 mg/kg/injection, schedule: Q01DX009 (ip), vehicle: saline) 104 % of control; (dose: 32.0 mg/kg/injection, schedule: Q01DX009 (ip), vehicle: saline) 95 % of control; (dose: 60.0 mg/kg/injection, schedule: Q01DX009 (ip), vehicle: saline) 109 % of control.

For `CC(=O)O.O=CCO.[C-]#[O+].[C-]#[O+].[C-]#[O+].[C-]#[O+].[Rh].[Rh]`, the T/C is 119 % of control (dose: 25.0 mg/kg/injection, schedule: Q01DX009 (ip), vehicle: Klucel (hydroxypropylcellulose) (HPC)) and 122 % of control (dose: 50.0 mg/kg/injection, schedule: Q01DX009 (ip), vehicle: Klucel (hydroxypropylcellulose) (HPC)).

In the case of `COC(=O)OCCOC(=O)OC`, the T/C runs as follows: (dose: 100.0 mg/kg/injection, schedule: Q01DX009 (ip), vehicle: saline) 100 % of control; (dose: 100.0 mg/kg/injection, schedule: Q04DX003 (ip), vehicle: saline) 95 % of control; (dose: 200.0 mg/kg/injection, schedule: Q01DX009 (ip), vehicle: saline) 110 % of control; (dose: 200.0 mg/kg/injection, schedule: Q04DX003 (ip), vehicle: saline) 100 % of control; (dose: 400.0 mg/kg/injection, schedule: Q01DX009 (ip), vehicle: saline) 100 % of control; (dose: 400.0 mg/kg/injection, schedule: Q04DX003 (ip), vehicle: saline) 100 % of control.

Consider `CCOC(=O)CC1NCCC2C1CCC(OC)C2OC` (stereo unspecified), for which the T/C is 95 % of control (dose: 12.5 mg/kg/injection, schedule: Q01DX009 (ip), vehicle: saline with Tween-80); 100 % of control (dose: 25.0 mg/kg/injection, schedule: Q01DX009 (ip), vehicle: saline with Tween-80); 100 % of control (dose: 50.0 mg/kg/injection, schedule: Q01DX009 (ip), vehicle: saline with Tween-80); 110 % of control (dose: 50.0 mg/kg/injection, schedule: Q04DX003 (ip), vehicle: other); 105 % of control under setting [1]; 100 % of control (dose: 100.0 mg/kg/injection, schedule: Q04DX003 (ip), vehicle: other). In addition, the T/C under setting [2] was 110 % of control and the T/C (dose: 200.0 mg/kg/injection, schedule: Q04DX003 (ip), vehicle: other) was 100 % of control.

With `CCCCCCCCCC(O)CCCCCCCCC`, the T/C is, setting by setting: under setting [1], 100 % of control; under setting [2], 95 % of control; (dose: 400.0 mg/kg/injection, schedule: Q01DX009 (ip), vehicle: other) 110 % of control.

Turning to `COc1cc(C=Nc2cccc(F)c2)ccc1N(CCCl)CCCl`, the T/C by setting is: (dose: 1.25 mg/kg/injection, schedule: Q01DX009 (ip), vehicle: other) 180 % of control; (dose: 2.5 mg/kg/injection, schedule: Q01DX009 (ip), vehicle: other) 195 % of control; (dose: 3.13 mg/kg/injection, schedule: Q01DX009 (ip), vehicle: other) 168 % of control; (dose: 5.0 mg/kg/injection, schedule: Q01DX009 (ip), vehicle: other) 280 % of control; (dose: 6.25 mg/kg/injection, schedule: Q01DX009 (ip), vehicle: other) 181 % of control; (dose: 12.5 mg/kg/injection, schedule: Q01DX009 (ip), vehicle: other) 95 % of control. The T/C runs as follows: (dose: 25.0 mg/kg/injection, schedule: Q04DX003 (ip), vehicle: saline sonified) 95 % of control; (dose: 50.0 mg/kg/injection, schedule: Q04DX003 (ip), vehicle: saline sonified) 100 % of control; (dose: 100.0 mg/kg/injection, schedule: Q04DX003 (ip), vehicle: saline sonified) 195 % of control.

On to `C1=CCC(C2OCC3(CO2)COC(C2CC=CCC2)OC3)CC1` (stereo unspecified), for which the T/C by setting is: (dose: 100.0 mg/kg/injection, schedule: Q01DX009 (ip), vehicle: Klucel (hydroxypropylcellulose) (HPC)) 96 % of control; (dose: 200.0 mg/kg/injection, schedule: Q01DX009 (ip), vehicle: Klucel (hydroxypropylcellulose) (HPC)) 88 % of control; (dose: 400.0 mg/kg/injection, schedule: Q01DX009 (ip), vehicle: Klucel (hydroxypropylcellulose) (HPC)) 88 % of control.

For the molecule `C#CCCC#C`, the T/C was 100 % of control (dose: 50.0 mg/kg/injection, schedule: Q04DX003 (ip), vehicle: saline with Tween-80); 96 % of control (dose: 67.0 mg/kg/injection, schedule: Q01DX005 (ip), vehicle: saline with Tween-80); 115 % of control under setting [3]; 104 % of control (dose: 100.0 mg/kg/injection, schedule: Q04DX003 (ip), vehicle: saline with Tween-80); 92 % of control (dose: 150.0 mg/kg/injection, schedule: Q01DX005 (ip), vehicle: saline with Tween-80); 103 % of control (dose: 200.0 mg/kg/injection, schedule: Q01DX009 (ip), vehicle: saline with Tween-80). Moreover, the T/C was 108 % of control (dose: 200.0 mg/kg/injection, schedule: Q04DX003 (ip), vehicle: saline with Tween-80) and 111 % of control (dose: 400.0 mg/kg/injection, schedule: Q01DX009 (ip), vehicle: saline with Tween-80).

Regarding `S=c1nc[nH]c2c1ccc1[nH]cnc12`, the T/C by setting is: (dose: 12.5 mg/kg/injection, schedule: Q01DX005 (ip), vehicle: saline with Tween-80) 99 % of control; (dose: 25.0 mg/kg/injection, schedule: Q01DX005 (ip), vehicle: saline with Tween-80) 100 % of control; (dose: 50.0 mg/kg/injection, schedule: Q01DX005 (ip), vehicle: saline with Tween-80) 99 % of control and 107 % of control; under setting [3], 90 % of control; (dose: 200.0 mg/kg/injection, schedule: Q01DX005 (ip), vehicle: saline with Tween-80) 104 % of control.
